Literature values as cited in patent US20140275170A1, “TASTE MASKING OF ANESTHETICS AND ANALGESICS” (priority 2013, published 2014).

Conditions: maximum doses of 7 mg/kg (550 mg)

Cc1cccc(C)c1NC(=O)C1CCCCN1C (stereo not shown) [mepivacaine]
Adverse effect at maximum doses: without adverse effect
